Laboratory results as given in patent US6288122A, “Gardos channel antagonists” (Icagen, Inc., priority 1999, dated 2001).
Several values for one entry are separate records, joined by “and”; a condition that tells them apart may be missing. Identical values can stand only once. Entries after “also recorded” stand apart in the source; their conditions may differ. Like-named read-outs stand apart in the source and are kept apart here.

Tests used:
in vitro = details: human, microsomes, pH 7.4
Description: The stability of the compounds in various biological milieus can be assayed by methods known in the art. In one embodiment, the stability of the compounds is assayed in an in vitro preparation. In a preferred embodiment, the in vitro preparation is a liver microsome preparation.
The reaction mixture contained 1.0 mg/ml human liver microsomal protein, 100 mM potassium phosphate (pH 7.4), 10 mM MgCl2 and an NADPH-generating system. The compounds were tested at a concentration of 5ΓM at 37° C. and the amount of intact compound remaining in the mixture after two hours calculated in terms of percent of original dose remaining.

[1] = tested on: Gardos channel of normal and sickle erythrocytes; details: cited from earlier work; for inhibition of Gardos channel / Ca2+-activated K+ flux: in vitro
Gardos channel [2] = target: T1, Gardos channel (Homo sapiens, UniProt O15554); assay: Inhibition of the Gardos channel in red blood cells (86Rb flux); type: cell-based; details: for improvement in potency (Gardos) over non-fluorinated triphenylacetamide 20: vs. compound 20
T1 construct: endogenous in cells; host or cells: red blood cells from heparinized whole blood
Text: The activity of the compounds of the invention towards ion channels, such as the Gardos channel can be assayed utilizing methods known in the art. […] Utilizing the methods described in this reference, both the percent inhibition of the Gardos channel and the IC50 of the compounds of the invention can be assayed.
In an exemplary assay, the inhibition by test compounds of an erythrocyte Gardos channel can be assayed using human red blood cells. The degree of inhibition can be measured using a detectable material such as ^86 Rb. In an exemplary assay, utilizing ^86 Rb, Gardos channel inhibition can be assayed by exposing red blood cells to ^86 Rb and a test compound and measuring the amount of ^86 Rb taken up by the cells. Numerous variations on this assay will be apparent to those of skill in the art.
Briefly, erythrocytes are exposed to a test compound and a ^86 Rb-containing medium. The initial rate of ^86 Rb transport can be calculated from a parameter such as the linear least square slope of ^86 Rb uptake by the cell(s). Inhibitory constants can be calculated by standard methods using computer-assisted nonlinear curve fitting.
Heparinized whole blood was washed three times with Modified Flux Buffer (MFB: 140 mM NaCl; 5 mM KCl; 10 mM Tris; 0.1 mM EGTA; pH=7.4). Washed cells were then incubated for 3 hours with ^86 Rb (5 μCi/mL). After this incubation period, the RBCs were washed three times with cold MFB. Washed ^86 Rb loaded RBCs were then incubated with a test compound of the invention for 10 minutes. ^86 Rb flux was then initiated by the addition of 20 μL/mL of a MFB solution containing 10 mM CaCl2 and 100 μM A23187, a calcium ionophore. This yielded a final concentration of 200 μM CaCl2 and 2 μM A23187 n the incubation medium. Cells were incubated for 10 minutes, spun down and the supernatant was removed. Samples were counted in a Wallace Microbeta liquid scintillation counter by Cerenkov emission. Total RBC ^86 Rb content was determined by lysing the RBCs with water and then precipitating protein using a 50:50 mixture of ethanol:chloroform. After a 20 minute microfuge spin, the aqueous and organic layers separated and the aqueous layer was removed and counted. Efflux is expressed as a percentage of the initial cell content of ^86 Rb.

IKs [3] = target: T2, IKs (Cavia porcellus, UniProt O70344); assay: Whole cell patch clamp recordings of IKs current in guinea pig myocytes; type: cell-based; details: estimated IC50, read-out: Est. IC50 Potency vs. IKs
T2 construct: Recordings of IKs current were made using the whole cell patch clamp methodology on guinea pig myocytes; endogenous in cells; host or cells: guinea pig myocytes (method of Turgeon et al., Circ. Res. 75: 879-86, 1994)

IKs vs. Gardos = assay: Selectivity for the Gardos channel relative to IKs (ratio of IC50s)
Description: Recordings of IKs current were made using the whole cell patch clamp methodology on guinea pig myocytes as described in Turgeon et al., Circulation Research 75: 879-86 (1994).
The selectivity of a particular compound for the Gardos channel relative to another potassium ion channel is conveniently determined as a ratio of two compound binding-related quantities (e.g., IC50).
The selectivity of the compounds for the Gardos channel was determined relative to IKs, an exemplary potassium ion channel.

[4] = Pharmacokinetic study in the rat (i.v. and p.o.); type: in vivo, male, Sprague-Dawley rats
Description: Pharmacokinctic studies were conducted in rats to extend the finding that selected fluoro substitution of the phenyl rings increased metabolic stability in vitro to an in vivo study. […] Blood samples were collected at 9 time points from predosing to 24 hours after dosing p.o. and at 11 time points from pre-dosing to 24 hours after i.v. dosing. Samples were prepared and analyzed for compound plasma concentration using LC-MS/MS.

sickled cells = details: combined with a compound which stabilizes the oxyconformation of Hb S; cited from earlier work
red cell Gardos channel = details: oral administration; cited from earlier work
Gardos channel [5] = details: oral therapy; cited from earlier work
IKs [6] = details: myocytes; cited from earlier work
[7] = erythrocytes, 86Rb, read-out: IC50 Potency vs. Gardos

T1 sequence (O15554 whole entry): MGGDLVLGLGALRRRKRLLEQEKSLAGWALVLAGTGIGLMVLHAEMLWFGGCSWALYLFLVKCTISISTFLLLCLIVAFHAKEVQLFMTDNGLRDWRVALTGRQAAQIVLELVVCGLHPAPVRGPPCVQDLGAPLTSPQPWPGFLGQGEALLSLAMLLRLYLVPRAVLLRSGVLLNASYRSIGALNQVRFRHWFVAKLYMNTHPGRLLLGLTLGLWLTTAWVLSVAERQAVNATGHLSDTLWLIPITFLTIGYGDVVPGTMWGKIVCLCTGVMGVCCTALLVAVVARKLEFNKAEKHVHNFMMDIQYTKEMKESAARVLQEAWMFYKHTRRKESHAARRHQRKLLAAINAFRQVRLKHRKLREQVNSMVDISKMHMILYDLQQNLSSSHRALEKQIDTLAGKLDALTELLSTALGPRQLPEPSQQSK
T2 sequence (Q60409 whole entry): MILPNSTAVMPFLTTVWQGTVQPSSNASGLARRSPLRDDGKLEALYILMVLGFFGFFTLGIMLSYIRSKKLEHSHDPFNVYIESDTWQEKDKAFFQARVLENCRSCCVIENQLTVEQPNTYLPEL
T2 sequence (O70344 whole entry): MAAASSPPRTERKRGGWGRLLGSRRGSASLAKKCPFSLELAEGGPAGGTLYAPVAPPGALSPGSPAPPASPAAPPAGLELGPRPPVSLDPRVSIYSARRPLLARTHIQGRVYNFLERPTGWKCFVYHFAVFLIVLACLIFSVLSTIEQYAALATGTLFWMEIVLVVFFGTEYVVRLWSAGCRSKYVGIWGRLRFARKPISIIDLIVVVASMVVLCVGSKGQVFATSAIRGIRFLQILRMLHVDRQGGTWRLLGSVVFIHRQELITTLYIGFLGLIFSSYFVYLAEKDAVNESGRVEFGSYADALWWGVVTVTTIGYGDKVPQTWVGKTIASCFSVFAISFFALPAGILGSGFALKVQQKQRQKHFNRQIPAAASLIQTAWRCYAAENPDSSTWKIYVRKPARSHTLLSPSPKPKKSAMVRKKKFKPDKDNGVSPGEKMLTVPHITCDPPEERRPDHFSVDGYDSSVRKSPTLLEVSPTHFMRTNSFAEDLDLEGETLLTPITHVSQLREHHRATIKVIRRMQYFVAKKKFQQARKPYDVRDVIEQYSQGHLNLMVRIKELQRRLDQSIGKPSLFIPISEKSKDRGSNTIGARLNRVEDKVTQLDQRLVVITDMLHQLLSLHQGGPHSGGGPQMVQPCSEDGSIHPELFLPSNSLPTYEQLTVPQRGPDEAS

SMILES	remaining at 2 h, 5 µM (in vitro) [%]	IC50 (Gardos channel [2]; [7]) [nM]	IC50 (IKs [3]) [nM]	other results
NC(=O)C(c1ccccc1)(c1ccccc1F)c1ccccc1F [Compound 14]	46			
Clc1ccc(COC(Cn2ccnc2)c2ccc(Cl)cc2Cl)cc1 (stereo not shown) [econazole]				sickle cell dehydration [1]: effective at reducing sickle cell dehydration; inhibition of Gardos channel / Ca2+-activated K+ flux [1]: inhibit the Gardos channel in vitro
NC(=O)[C@](c1ccccc1)(c1ccc(F)cc1)c1ccccc1F [Compound 12]	44	5	1800	improvement in potency (Gardos) of 12 over 8 (Gardos channel [2]): ~700%; increase in potency (Gardos) over clotrimazole (Gardos channel [2]): 2000%; improvement in potency (Gardos) over non-fluorinated triphenylacetamide 20 (Gardos channel [2]): 1000%
NC(=O)C(c1ccc(F)cc1)(c1cccc(F)c1)c1cccc(F)c1 [Compound 10]	59	12	1300	Selectivity (IKs vs. Gardos) (IKs vs. Gardos; ratio of IC50 towards IKs vs. IC50 towards the Gardos channel): 110
Clc1ccc(COC(Cn2ccnc2)c2ccc(Cl)cc2Cl)c(Cl)c1 (stereo not shown) [miconazole]				sickle cell dehydration [1]: effective at reducing sickle cell dehydration; inhibition of Gardos channel / Ca2+-activated K+ flux [1]: inhibit the Gardos channel in vitro
Clc1ccc(CCC(Cn2ccnc2)Sc2c(Cl)cccc2Cl)cc1 (stereo not shown) [butoconazole]				sickle cell dehydration [1]: effective at reducing sickle cell dehydration; inhibition of Gardos channel / Ca2+-activated K+ flux [1]: inhibit the Gardos channel in vitro
NC(=O)C(c1cccc(F)c1)(c1cccc(F)c1)c1cccc(F)c1 [Compound 17]	18		4000	metabolised at 2 h, 5 µM (in vitro): 82%
NC(=O)C(c1ccccc1)(c1ccccc1)c1ccc(F)c(F)c1 [Compound 7]	15		1200	metabolised at 2 h, 5 µM (in vitro): 85%
NC(=O)C(c1ccccc1)(c1ccccc1)c1ccccc1Cl [Compound 18]	6		7300	IC50 (Gardos channel [2]): 10 nM; elimination from the bloodstream ([4]; 1 mg/kg i.v., rat): fast; plasma level after oral dosing ([4]; 10 mg/kg p.o., 2 hour post-dose sample): no detectable levels; plasma level after oral dosing ([4]; 10 mg/kg p.o., between 0.25 and 1 hour after dosing): 31 to 65 ng/mL; oral bioavailability ([4]; 10 mg/kg p.o., rat): very poor oral bioavailability
Clc1ccccc1C(c1ccccc1)(c1ccccc1)n1ccnc1 [Compound 19, clotrimazole]	4			clogging rate of a micropore filter (sickled cells): additive reduction in the clogging rate of a micropore filter; effects of oral clotrimazole in SAD-1 mouse (red cell Gardos channel): inhibition of the red cell Gardos channel, increased red cell K^+ content, a decreased mean corpuscular hemoglobin concentration (MCHC) and decreased cell density; effects of oral clotrimazole in patients with sickle cell disease (Gardos channel [5]): induces inhibition of the Gardos channel and reduces erythrocyte ehydration; interaction with IKs (IKs [6]): interact with the slow component of the delayed rectifier potassium current in myocytes, IKs; inhibition of Gardos channel / Ca2+-activated K+ flux [1]: specific, potent inhibitor of the Gardos channel of normal and sickle erythrocytes; also recorded: blocks Ca^2+ -activated K^+ flux and cell dehydration in sickle erythrocytes
NC(=O)C(c1ccccc1)(c1ccccc1)c1ccc(F)cc1F [Compound 8]	39	34	5700	metabolised at 2 h, 5 µM (in vitro): 61%
NC(=O)C(c1ccc(F)cc1)(c1ccc(F)cc1)c1ccccc1F [Compound 5, bis(4-fluorophenyl)-2-fluorophenylacetamide]	71		1400	metabolised at 2 h, 5 µM (in vitro): 29%; fold more potent than clotrimazole towards the Gardos channel (Gardos channel [2]): ~10 fold; fold more selective for the Gardos channel versus IKs than clotrimazole (IKs vs. Gardos; vs. clotrimazole): ~18 fold and ~17 fold; fold more selective for the Gardos channel than the unsubstituted triphenylacetamide parent 20 (IKs vs. Gardos; vs. compound 20): approximately 6 fold
NC(=O)C(c1ccc(F)cc1)(c1ccccc1F)c1ccccc1F [Compound 15]	53			
NC(=O)C(c1ccccc1)(c1ccc(F)cc1)c1ccccc1F (stereo not shown) [Compound 1, (2-fluorophenyl)-(4-fluorophenyl)phenylacetamide]	64		2000	oral bioavailability ([4]; 10 mg/kg p.o., 1 mg/kg i.v., rat): 35%
NC(=O)C(c1ccccc1)(c1ccccc1)c1ccccc1 [Compound 20, reference compound]	13	50	1100	metabolised at 2 h, 5 µM (in vitro): 87%
NC(=O)C(c1ccccc1)(c1ccc(F)cc1)c1ccc(F)cc1 [Compound 3, bis(4-fluorophenyl)phenylacetamide]	76		1500	metabolised at 2 h, 5 µM (in vitro): 24%; bioavailability ([4]; plasma, po, 10 mg/kg p.o., 1 mg/kg i.v., rat): 100%
NC(=O)C(c1ccc(F)cc1)(c1ccc(F)cc1)c1ccc(F)cc1 [Compound 13]	53		1100	
NC(=O)C(c1ccccc1)(c1cccc(F)c1)c1cccc(F)c1 [Compound 9]	3	30	3200	metabolised at 2 h, 5 µM (in vitro): 97%
NC(=O)C(c1ccc(F)cc1)(c1ccc(F)cc1)c1cccc(F)c1 [Compound 16, bis(4-fluorophenyl)-3-fluorophenylacetamide]	57		1900	
OC(c1ccccc1)(c1ccccc1)c1ccccc1Cl [Compound 21, reference compound]	35		2600	IC50 (Gardos channel [2]): 500 nM
NC(=O)C(c1ccccc1)(c1ccccc1)c1ccccc1F [Compound 2]	80	15		improvement in potency (Gardos) over non-fluorinated triphenylacetamide 20 (Gardos channel [2]): 330%
NC(=O)C(c1ccccc1)(c1ccccc1)c1ccc(F)cc1 [Compound 4]	80	13		
NC(=O)C(c1ccccc1)(c1ccccc1)c1c(F)c(F)c(F)c(F)c1F [Compound 6]		37		
NC(=O)[C@@](c1ccccc1)(c1ccc(F)cc1)c1ccccc1F [Compound 11]	78	5	1300	increase in potency (Gardos) of 11 over 9 (Gardos channel [2]): 600%
CNC(=O)C(c1ccccc1)(c1ccccc1)c1ccccc1 [Compound 22, reference compound]	8	100	2600	
